Results as given in patent publication US12180193B2, “Accelerating fibrosarcoma protein degrading compounds and associated methods of use” (Arvinas Operations, Inc., priority 2020, dated 2024).

How the values were obtained:
BRAF G466V = biological target: T1, BRAF G466V (Homo sapiens, UniProt P15056, G466V); experiment: Cellular assay of target protein degradation, T-Rex 293 cells stably transfected with HA-BRAF G466V (HA immunofluorescence, high content imaging); type: cell-based; conditions: T-Rex 293 HA-BRAF G466V; for DC50: half maximal degradation, read-out: BRaf G466V DC50; for Dmax: maximum degradation observed
T1 construct: expressed in transfected cells
T1 sequence (P15056 whole entry G466V): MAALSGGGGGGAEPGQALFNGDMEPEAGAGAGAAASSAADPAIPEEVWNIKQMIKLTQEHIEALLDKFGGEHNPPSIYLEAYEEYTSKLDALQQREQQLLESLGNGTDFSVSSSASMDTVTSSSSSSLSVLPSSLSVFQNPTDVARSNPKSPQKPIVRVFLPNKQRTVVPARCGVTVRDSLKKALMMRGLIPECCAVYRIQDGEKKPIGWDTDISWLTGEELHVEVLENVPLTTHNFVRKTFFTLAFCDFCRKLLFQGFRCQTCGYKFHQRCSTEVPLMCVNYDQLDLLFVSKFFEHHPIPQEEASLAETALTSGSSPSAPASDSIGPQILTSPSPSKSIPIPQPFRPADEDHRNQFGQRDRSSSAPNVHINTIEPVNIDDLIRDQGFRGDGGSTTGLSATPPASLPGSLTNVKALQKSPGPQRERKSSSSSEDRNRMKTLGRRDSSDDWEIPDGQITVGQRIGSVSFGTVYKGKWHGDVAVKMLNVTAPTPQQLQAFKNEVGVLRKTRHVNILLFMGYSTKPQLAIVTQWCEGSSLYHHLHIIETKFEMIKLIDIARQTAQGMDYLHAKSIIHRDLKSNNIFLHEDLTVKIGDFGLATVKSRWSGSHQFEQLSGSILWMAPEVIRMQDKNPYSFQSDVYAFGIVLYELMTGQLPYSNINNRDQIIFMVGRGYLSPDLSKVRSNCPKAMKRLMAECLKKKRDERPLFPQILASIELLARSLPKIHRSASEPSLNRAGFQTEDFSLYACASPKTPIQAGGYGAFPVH
How it was run: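 First, stably transfected T-Rex 293 cells were plated with 0.75 ng/mL doxycycline and grown for 24 hours. Next, compound (final 30 nM to 3 pM, 0.1% DMSO) was added for another 24 hours at 37° C. Finally, cells were fixed, stained for HA and imaged.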

BRAF V600E = biological target: T2, BRAF V600E (Homo sapiens, UniProt P15056, V600E); experiment: Cellular assay of target protein degradation, T-Rex 293 cells stably transfected with HA-BRAF_V600E (HA immunofluorescence, high content imaging); type: cell-based; conditions: T-Rex 293 HA-BRAF V600E; for DC50: half maximal degradation, read-out: BRaf V600E DC50; for Dmax: maximum degradation observed
T2 construct: expressed in transfected cells
T2 sequence (P15056 whole entry V600E): as the sequence (P15056 whole entry G466V) above, with V466G, V600E counted along it
How it was run: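 Read-out is anti-HA immunofluorescence quantified by high-content imaging, giving half-maximal degradation concentration (DC50) and maximum degradation (Dmax, percent of control). Cells expressed the construct under 1 ng/mL doxycycline and received compound (1 μM to 0.1 nM final, 0.1% DMSO) for 24 h at 37 °C.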

Row | DC50 (BRAF G466V) | Dmax (BRAF G466V) | DC50 (BRAF V600E) | Dmax (BRAF V600E) | Compound
1 | 1 to 10 nM | 35 to 70% | 50 to 500 nM | 35 to 70% | O=C1CCC(N2Cc3cc(N4CCC(CC5CN(c6ccc(-c7cnc8[nH]cc(C(=O)c9c(F)ccc(NS(=O)(=O)N%10CC[C@@H](F)C%10)c9F)c8c7)cc6)C5)CC4)ccc3C2=O)C(=O)N1 (stereo partly drawn) [Compound 302, (3R)-N-[3-(5-{4-[3-({1-[2-(2,6-dioxopiperidin-3-yl)-1-oxo-2,3-dihydro-1H-isoindol-5-yl]piperidin-4-yl}methyl)azetidin-1-yl]phenyl}-1H-pyrrolo[2,3-b]pyridine-3-carbonyl)-2,4-difluorophenyl]-3-fluoropyrrolidine-1-sulfonamide]
2 | 1 to 10 nM | 35 to 70% | 50 to 500 nM | 35 to 70% | O=C1CC[C@H](N2Cc3cc(C4CCN(CC5CCN(c6ccc(-c7cnc8[nH]cc(C(=O)c9c(F)ccc(NS(=O)(=O)N%10CC[C@@H](F)C%10)c9C(F)(F)F)c8c7)cc6)CC5)CC4)ccc3C2=O)C(=O)N1 [Compound 272, (3R)-N-{3-[5-(4-{4-[(4-{2-[(3S)-2,6-dioxopiperidin-3-yl]-1-oxo-2,3-dihydro-1H-isoindol-5-yl}piperidin-1-yl)methyl]piperidin-1-yl}phenyl)-1H-pyrrolo [2,3-b]pyridine-3-carbonyl]-4-fluoro-2-(trifluoromethyl)phenyl}-3-fluoropyrrolidine-1-sulfonamide]
3 | 1 to 10 nM | > 70% | 5 to 50 nM | 35 to 70% | O=C1CCC(N2Cc3cc(C4CCN(C[C@@H]5[C@H]6CN(c7ccc(-c8cnc9[nH]cc(C(=O)c%10c(F)ccc(NS(=O)(=O)N%11CC[C@@H](F)C%11)c%10F)c9c8)cc7)C[C@@H]56)CC4)ccc3C2=O)C(=O)N1 (stereo partly drawn) [Compound 179, (3R)-N-[3-(5-{4-[(1R,5S,6S)-6-({4-[2-(2,6-dioxopiperidin-3-yl)-1-oxo-2,3-dihydro-1H-isoindol-5-yl]piperidin-1-yl}methyl)-3-azabicyclo[3.1.0]hexan-3-yl]phenyl}-1H-pyrrolo[2,3-b]pyridine-3-carbonyl)-2,4-difluorophenyl]-3-fluoropyrrolidine-1-sulfonamide]
4 | < 1 nM | > 70% | 5 to 50 nM | 35 to 70% | COc1cc(C2CCN(CC3CCN(c4ncc(-c5cnc6[nH]cc(C(=O)c7c(F)ccc(NS(=O)(=O)N8CC[C@@H](F)C8)c7F)c6c5)cn4)CC3)CC2)cc2c1C(=O)N(C1CCC(=O)NC1=O)C2 (stereo partly drawn) [Compound 175, (3R)-N-[3-(5-{2-[4-({4-[2-(2,6-dioxopiperidin-3-yl)-7-methoxy-1-oxo-2,3-dihydro-1H-isoindol-5-yl]piperidin-1-yl}methyl)piperidin-1-yl]pyrimidin-5-yl}-1H-pyrrolo[2,3-b]pyridine-3-carbonyl)-2,4-difluorophenyl]-3-fluoropyrrolidine-1-sulfonamide]
5 | 1 to 10 nM | 35 to 70% | 50 to 500 nM | 35 to 70% | C[C@H](c1ncc(-c2cnc3[nH]cc(C(=O)c4c(F)ccc(NS(=O)(=O)N5CC[C@@H](F)C5)c4F)c3c2)cn1)N1CCN(CC2CCN(c3ccc4c(c3)CN([C@H]3CCC(=O)NC3=O)C4=O)CC2)CC1 [Compound 290, (3R)-N-[3-(5-{2-[(1R)-1-{4-[(1-{2-[(3S)-2,6-dioxopiperidin-3-yl]-1-oxo-2,3-dihydro-1H-isoindol-5-yl}piperidin-4-yl)methyl]piperazin-1-yl}ethyl]pyrimidin-5-yl}-1H-pyrrolo[2,3-b]pyridine-3-carbonyl)-2,4-difluorophenyl]-3-fluoropyrrolidine-1-sulfonamide]
6 | < 1 nM | > 70% | 5 to 50 nM | 35 to 70% | O=C1CCC(N2Cc3cc(C4CCN(C5CCN(c6ccc(-c7cnc8[nH]cc(C(=O)c9c(F)ccc(NS(=O)(=O)N%10CC[C@@H](F)C%10)c9F)c8c7)cc6)CC5)CC4)ccc3C2=O)C(=O)N1 (stereo partly drawn) [Compound 326, (3R)-N-{3-[5-(4-{4-[2-(2,6-dioxopiperidin-3-yl)-1-oxo-2,3-dihydro-1H-isoindol-5-yl]-[1,4′-bipiperidin]-1′-yl}phenyl)-1H-pyrrolo[2,3-b]pyridine-3-carbonyl]-2,4-difluorophenyl}-3-fluoropyrrolidine-1-sulfonamide]
7 | 1 to 10 nM | 35 to 70% | 5 to 50 nM | 35 to 70% | O=C1CCC(N2Cc3cc(N4CCN(CC5CN(c6ccc(-c7cnc8[nH]cc(C(=O)c9c(F)ccc(NS(=O)(=O)N%10CC[C@@H](F)C%10)c9F)c8c7)cc6F)C5)CC4)ccc3C2=O)C(=O)N1 (stereo partly drawn) [Compound 131, (3R)-N-[3-(5-{4-[3-({4-[2-(2,6-dioxopiperidin-3-yl)-1-oxo-2,3-dihydro-1H-isoindol-5-yl]piperazin-1-yl}methyl)azetidin-1-yl]-3-fluorophenyl}-1H-pyrrolo[2,3-b]pyridine-3-carbonyl)-2,4-difluorophenyl]-3-fluoropyrrolidine-1-sulfonamide]
8 | 1 to 10 nM | > 70% | 5 to 50 nM | 35 to 70% | O=C1CC[C@@H](N2Cc3cc(OCCCN4CC5(C4)CN(c4ccc(-c6cnc7[nH]cc(C(=O)c8c(F)ccc(NS(=O)(=O)N9CC[C@@H](F)C9)c8F)c7c6)cc4)C5)ccc3C2=O)C(=O)N1 [Compound 81, (3R)-N-{3-[5-(4-{6-[3-({2-[(3R)-2,6-dioxopiperidin-3-yl]-1-oxo-2,3-dihydro-1H-isoindol-5-yl}oxy)propyl]-2,6-diazaspiro[3.3]heptan-2-yl}phenyl)-1H-pyrrolo[2,3-b]pyridine-3-carbonyl]-2,4-difluorophenyl}-3-fluoropyrrolidine-1-sulfonamide]
9 | 1 to 10 nM | 35 to 70% | < 5 nM | 35 to 70% | O=C1CCC(N2Cc3cc(C(O)CN4CCN(c5ccc(-c6cnc7[nH]cc(C(=O)c8c(F)ccc(NS(=O)(=O)N9CC[C@@H](F)C9)c8F)c7c6)cc5)CC4)ccc3C2=O)C(=O)N1 (stereo partly drawn) [Compound 32, (3R)-N-(3-{5-[4-(4-{2-[2-(2,6-dioxopiperidin-3-yl)-1-oxo-2,3-dihydro-1H-isoindol-5-yl]-2-hydroxyethyl}piperazin-1-yl)phenyl]-1H-pyrrolo[2,3-b]pyridin-3-carbonyl}-2,4-difluorophenyl)-3-fluoropyrrolidine-1-sulfonamide]
10 | 1 to 10 nM | > 70% | 50 to 500 nM | 35 to 70% | O=C1CCC(N2Cc3cc(C4CCN(C[C@H](O)Cc5ccc(-c6cnc7[nH]cc(C(=O)c8c(F)ccc(NS(=O)(=O)N9CC[C@@H](F)C9)c8F)c7c6)cc5)CC4)ccc3C2=O)C(=O)N1 (stereo partly drawn) [Compound 110, (3R)-N-[3-(5-{4-[(2R)-3-{4-[2-(2,6-dioxopiperidin-3-yl)-1-oxo-2,3-dihydro-1H-isoindol-5-yl]piperidin-1-yl}-2-hydroxypropyl]phenyl}-1H-pyrrolo[2,3-b]pyridine-3-carbonyl)-2,4-difluorophenyl]-3-fluoropyrrolidine-1-sulfonamide]
11 | 1 to 10 nM | > 70% | 5 to 50 nM | < 35% | O=C1CCC(N2Cc3cc(C4CCN(CC[C@@H]5CCN(c6ccc(-c7cnc8[nH]cc(C(=O)c9c(F)ccc(NS(=O)(=O)N%10CC[C@@H](F)C%10)c9F)c8c7)cc6)C5)CC4)ccc3C2=O)C(=O)N1 (stereo partly drawn) [Compound 216, (3R)-N-[3-(5-{4-[(3R)-3-(2-{4-[2-(2,6-dioxopiperidin-3-yl)-1-oxo-2,3-dihydro-1H-isoindol-5-yl]piperidin-1-yl}ethyl)pyrrolidin-1-yl]phenyl}-1H-pyrrolo [2,3-b]pyridine-3-carbonyl)-2,4-difluorophenyl]-3-fluoropyrrolidine-1-sulfonamide]
